“And” between values parts separate entries of the source, which are not always exact repeats. Identical values can stand only once.
Test system: 282377-053-R-J1-PDC complex spheroid viability
Test: Anticancer human tumor 282377-053-R-J1-PDC patient-derived colon adenocarcinoma cell line growth inhibition [POLQ]
Settings: for viability, T/C: stronger effect = lower value; for IC50: curve of compound
Method: Multicellular complex tumor spheroid response to Polymerase (POL) inhibitors (novobiocin, ART-558, RP6685) in combination with a variety of drugs and investigational agents in selected tumor cell lines
The POL inhibitors (novobiocin, ART-558, and RP6685) were evaluated both individually and in combination with standard of care and investigational anticancer small molecules within a complex spheroid model of solid tumors. . Complex spheroids include a stromal component modeled by human endothelial cells (HUVEC) and fibroblasts modeled by human mesenchymal stem cells (MSCs). The concentration ranges selected for each drug and investigational agent were based upon clinically achievable concentrations if the clinical Cmax of the agent was known.
Compounds. The drugs and investigational agents: novobiocin (NSC847541), ART-558 (NSC835418), RP-6685 (NSC848927), peposertib (NSC802822), ceralasertib (NSC780249), elimusertib (NSC800525), camonsertib (NSC841442), AZD-1390 (NSC803789), olaparib (NSC753686), talazoparib (NSC767125), rucaparib (NSC756644), sotorasib (NSC818433), MRTX-1133 (NSC836407), SN-38 (NSC673596), topotecan (NSC609699), epotoside (NSC141540), doxorubicin (NSC123127), gemcitabine (NSC613327), 5-fluorouracil (NSC19893), paclitaxel (NSC125973), vemurafenib (NSC761431), MSA-2 (NSC828583), SN-011 (NSC837082), adavosertib (NSC754352), prexasertib (NSC758257), carboplatin (NSC241240) and oxaliplatin (NSC266046), were obtained from the National Cancer Institute (NCI) Developmental Therapeutics Program Chemical Repository (21). The FDA-approved anticancer drug set is available from the Developmental Therapeutics Program at https://dtp.cancer.gov/organization/dscb/obtaining/. […] The stock solutions were prepared in dimethyl sulfoxide (DMSO, Sigma-Aldrich, St. Louis, MO, cat. D2650), except for the platinum compounds which were prepared in saline (Quality Biological, Gaithersburg, MD, cat. 114-055-101), at 800-fold the tested concentration and stored at -70 degrees C prior to their use. All drugs and investigational agents were tested over a range starting from a high concentration at or near the clinical Cmax and decreasing in half-log increments. If the clinical Cmax for an agent had not been determined, the highest concentration tested was 10 microM, except for SN-38, which was tested at a high concentration of 1 microM.
Cell Culture. All cells were maintained in an incubator at 37 degrees C and 5% CO2 with 95% humidity. The PDC lines were cultured according to standard operating procedures established by the NCI PDMR (https://pdmr.cancer.gov). Table 3 of the manuscript, lists the cell lines along with the number of the three cell types plated to form the mct-spheroids and media for tumor cell growth. After thawing, all PDC lines, except 997537-175-T-J1-PDC and 415267-285-R-J2-PDC, were cultured in Matrigel-coated flasks prepared with a working solution of 1X Ham's F-12 nutrient mix, without supplementation (Thermo Fisher Scientific, cat. 11765054), 100 U/mL penicillin-streptomycin (Thermo Fisher Scientific, cat. 15140122), and 2.5% Matrigel (Corning Inc., Corning, NY, cat. 354248) for the first three passages. The two PDC lines 997537-175-T-J1-PDC and 415267-285-R-J2-PDC were cultured on uncoated flasks. The 857933-349-R-J2-PDC line was cultured in 6C/Colon 1B media containing advanced DMEM/F-12 (Thermo Fisher Scientific, cat. 12634028), 10 mM HEPES (Thermo Fisher Scientific, cat. 15630080), 1X GlutaMAX supplement (Thermo Fisher Scientific, cat. 35050061), 0.1 mg/mL primocin (InvivoGen, San Diego, CA, cat. ant-pm-2), 10% defined fetal bovine serum, heat inactivated (HyClone Laboratories Inc., Logan, UT, cat. SH30070.03HI), 50% L-WRN conditioned media (ATCC, cat. CRL-3276), 1.25 mM N-Acetyl-L-cysteine (Sigma-Aldrich, cat. A9165), 10 mM nicotinamide (Sigma-Aldrich, cat. N0636), 1X B-27 supplement (Thermo Fisher Scientific, cat. 17504044), 1X N-2 supplement (Thermo Fisher Scientific, cat. […]
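Further: spheroids exposed to compounds for seven days.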
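Wherever viability, T/C is given: 100% = DMSO vehicle control viability.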

Compound	viability, T/C (compound 0.0316 µM)	viability, T/C (compound 0.1 µM)	viability, T/C (compound 0.316 µM)	viability, T/C (compound 1 µM)	viability, T/C (compound 3.16 µM)	viability, T/C (compound 10 µM)	IC50	viability, T/C (compound 0.000316 µM)	viability, T/C (compound 0.001 µM)	viability, T/C (compound 0.00316 µM)	viability, T/C (compound 0.01 µM)
CC1COCCN1c1cc(C2(O)CC3CCC(C2)O3)c2cnn(-c3ccn[nH]3)c2n1 (stereo not drawn)	79.8% and 96.8% and 76.4%	77% and 69.1% and 83.1%	57.1% and 59.1% and 53.6%	29.4% and 34.3% and 49.3%	27.7% and 24.9% and 49.9%	16.7% and 22% and 41.5%	0.431 µM and 0.391 µM and 0.592 µM				
CC1COCCN1c1cc(C2(S(C)(=N)=O)CC2)nc(-c2ccnc3[nH]ccc23)n1 (stereo not drawn)	93% and 90.1% and 105%	95.7% and 96.4% and 89.9%	86.7% and 94.9% and 95.5%	75.4% and 89.4% and 93.3%	57.4% and 74.8% and 62%	46.7% and 55.4% and 47%	7.04 µM and > 10 µM and 7.94 µM				
CCCS(=O)(=O)Nc1ccc(F)c(C(=O)c2c[nH]c3ncc(-c4ccc(Cl)cc4)cc23)c1F	93.1% and 82.2% and 78.1%	85.3% and 76.1% and 69.5%	85.1% and 71% and 76.2%	72% and 64.2% and 46.1%	68.8% and 63.2% and 64.1%	69.5% and 72.5% and 26.7%	> 10 µM and 3.36 µM				
CC[C@@]1(O)C(=O)OCc2c1cc1n(c2=O)Cc2cc3c(CN(C)C)c(O)ccc3nc2-1	98.5% and 97.7% and 86.9%	81.5% and 110% and 76.7%					> 0.1 µM	98.9% and 101% and 105%	93.9% and 102% and 98.8%	77% and 92.2% and 116%	119% and 104% and 94.3%
CCc1c2c(nc3ccc(O)cc13)-c1cc3c(c(=O)n1C2)COC(=O)[C@]3(O)CC	63.4% and 83.3% and 72.2%	44.6% and 68.1% and 50.9%	31.1% and 69.5% and 42%	20% and 66.9% and 19.1%						106% and 102% and 122%	69.4% and 103% and 64.5%
CCc1cc2c(N3CCc4c(cc(Cn5ccnc5)cc4-c4cn(C)nc4C(F)(F)F)C3=O)cc(C)nc2c(OC)n1	103% and 99% and 81.1%	120% and 97.4% and 84.6%	124% and 98% and 87.1%	144% and 89.3% and 98.1%	112% and 113% and 109%	72.1% and 119% and 109%	> 10 µM				
CCc1cc2c(N3CCc4c(cc(Cn5ccnc5)cc4-c4cn(C)nc4C(F)(F)F)C3=O)ccnc2c(OC)n1	128% and 102% and 81.9%	138% and 96.1% and 88.3%	140% and 95% and 77.2%	129% and 82.6% and 88.5%	121% and 93.2% and 89.4%	88% and 110% and 120%	> 10 µM				

From PubChem BioAssay AID1963852 (Molecular Pharmacology Branch, DTP, NCI, 2024)
